The values that follow come from patent publication US11827628B2, “Compositions and methods for inhibition of the JAK pathway” (Rigel Pharmaceuticals, Inc., priority 2005, dated 2023).

Read-outs that look alike come from different tables or passages of the source.

The test system of experiment [1] is IL-4 stimulated expression of CD23 in human Ramos B cells (JAK-1 and JAK-3). Kind of experiment: Assay for Ramos B-Cell Line Stimulated with IL-4 (CD23 upregulation, FACS). The format is cell-based. As to conditions: read-out: IC50, Example 41. Summed up:
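Human Ramos B cells in RPMI with 5% serum were pre-incubated with compound or DMSO for 1 h at 37 °C, then stimulated with IL-4 at a final 50 units/mL for 20-24 h. CD23 upregulation was measured by anti-CD23-PE staining and flow cytometry, and IC50 values were calculated.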

For experiment [2], the system named is Primary human T-cells. As to the kind of experiment: Primary Human T-Cell Proliferation Assay Stimulated with IL-2 (CellTiter-Glo). Conditions: read-out: IC50, Example 42. The experiment is classed as cell-based. The text has this:
The activity of the active compounds of the invention may further be characterized by assaying the effect of the 2,4-substituted pyrimidinediamine compounds described herein on the proliferative response of primary human T-cells. In this assay, primary human T-cells derived from peripheral blood and pre-activated through stimulation of the T-cell receptor and CD28, proliferate in culture in response to the cytokine Interleukin-2 (IL-2). This proliferative response is dependent on the activation of JAK1 and JAK3 tyrosine kinases, which phosphorylate and activate the transcription factor Stat-5. The primary human T-cells are incubated with the 2,4-substituted pyrimidinediamine compounds in the presence of IL-2 for 72 hours and at the assay endpoint intracellular ATP concentrations are measured to assess cell viability. A reduction in cell proliferation compared to control conditions is indicative of inhibition of the JAK kinase pathway. An exemplary assay of this type is described in greater detail in Example 42
Primary human T-cells derived from peripheral blood and pre-activated through stimulation of the T-cell receptor and CD28, proliferate in vitro in response to the cytokine Interleukin-2 (IL-2). This proliferative response is dependent on the activation of JAK-1 and JAK-3 tyrosine kinases, which phosphorylate and activate the transcription factor Stat-5.
Human primary T cells were prepared as follows. Whole blood was obtained from a healthy volunteer, mixed 1:1 with PBS, layered on to Ficoll Hypaque (Amersham Pharmacia Biotech, Piscataway, NJ, Catalog #17-1440-03) in 2:1 blood/PBS:ficoll ratio and centrifuged for 30 min at 4° C. at 1750 rpm. The lymphocytes at the serum: ficoll interface were recovered and washed twice with 5 volumes of PBS. The cells were resuspended in Yssel's medium (Gemini Bio-products, Woodland, CA, Catalog #400-103) containing 40 U/mL recombinant IL2 (R and D Systems, Minneapolis, MN, Catalog #202-IL (20 rig)) and seeded into a flask pre-coated with 1 μg/mL anti-CD3 (BD Pharmingen, San Diego, CA, Catalog #555336) and 5 μg/mL anti-CD28 (Immunotech, Beckman Coulter of Brea CA, Catalog #IM1376). The primary T-cells were stimulated for 3-4 days, then transferred to a fresh flask and maintained in RPMI with 10% FBS and 40 U/mL IL-2.
Primary T-cells were washed twice with PBS to remove the IL-2 and resuspended in Yssel's medium at 2×10^6 cells/mL. 50 μL of cell suspension containing 80 U/mL IL-2 was added to each well of a flat bottom 96 well black plate. For the unstimulated control, IL-2 was omitted from the last column on the plate. Compounds were serially diluted in dimethyl sulfoxide (DMSO, 99.7% pure, cell culture tested, Sigma-Aldrich, St. Louis, MO, Catalog No. D2650) from 5 mM in 3-fold dilutions, and then diluted 1:250 in Yssel's medium. 50 μL of 2× compound was added per well in duplicate and the cells were allowed to proliferate for 72 hours at 37° C.
Proliferation was measured using CellTiter-Glo® Luminescent Cell Viability Assay (Promega), which determines the number of viable cells in culture based on quantitation of the ATP present, as an indicator of metabolically active cells. The substrate was thawed and allowed to come to room temperature. After mixing the Cell Titer-Glo reagent and diluent together, 100 μL was added to each well. The plates were mixed on an orbital shaker for two minutes to induce lysis and incubated at room temperature for an additional ten minutes to allow the signal to equilibrate. Detection was performed using a Wallac Victor2 1420 multilabel counter purchased from Perkin Elmer, Shelton, CT The IC50 calculated based on the results of this assay are provided in TABLE XII.

[3] abbreviates: Homo sapiens, Ramos, Ramos B-cell line stimulated with IL-4, CD23 expression by FACS.
Setting [4] is: Homo sapiens, T-cell, primary human T-cell proliferation stimulated with IL-2.
The mark [5] stands for this setting: Ramos B-cell line stimulated with IL-4, CD23 expression by FACS.
Setting [6] is: primary human T-cell proliferation stimulated with IL-2.
[7] abbreviates: Ramos B cells stimulated with IL-4, CD23 expression by FACS.
Setting [8] is: primary human T-cells stimulated with IL-2, proliferation.

Take `CNC(=O)COc1ccc(Nc2nc(Nc3ccc(S(N)(=O)=O)cc3)ncc2C)cc1F` [Compound I-154, N2-(4-Aminosulfonylphenyl)-N4-(3-fluoro-4-methylaminocarbonylmethoxyphenyl)-5-methyl-2,4-pyrimidinediamine]: the IC50 in experiment [1] (setting [3]) is 276 nM; in experiment [2] (setting [4]) it was 992 nM.

On to `C=CCNC(=O)COc1ccc(Nc2nc(Nc3ccc(S(N)(=O)=O)cc3)ncc2F)cc1` [Compound I-157, N4-(4-Allylaminocarbonylmethoxyphenyl)-N2-(4-aminosulfonylphenyl)-5-fluoro-2,4-pyrimidinediamine], for which the half-inhibitory concentration (IC50) in experiment [1] (setting [3]) amounted to 246 nM; in experiment [2] (setting [4]), 1890 nM.

`NS(=O)(=O)c1cccc(Nc2ncc(F)c(Nc3ccc(OCc4ccccn4)cc3)n2)c1` [Compound I-162, N2-(3-Aminosulfonylphenyl)-5-fluoro-N4-[4-(2-pyridinyl)methyleneoxyphenyl]-2,4-pyrimidinediamine]: the IC50 in experiment [1] (setting [5]) turned out to be 51 nM; in experiment [2] (setting [6]), 136 nM.

For `Cc1cc(Nc2nc(Nc3ccc(S(C)(=O)=O)c(N)c3)ncc2F)ccc1OCc1ccccn1` [Compound I-168, N2-(3-Amino-4-methylsulfonylphenyl)-5-fluoro-N4-[(4-((pyridin-2-yl)methoxy)-3-methylphenyl)]-2,4-pyrimidinediamine], the values for the IC50 in experiment [1] (setting [3]) and in experiment [2] (setting [4]) were 154 nM and 1180 nM, respectively.

For the compound `NS(=O)(=O)c1cccc(Nc2ncc(F)c(Nc3ccc(-c4ccccn4)c(OCF)c3)n2)c1` [Compound I-169, N2-(3-Aminosulfonylphenyl)-5-fluoro-N4-[4-(2-pyridinyl)-3-fluoromethyleneoxyphenyl]-2,4-pyrimidinediamine], the IC50 stood at 54.6 nM in experiment [1] (setting [5]) and 137 nM in experiment [2] (setting [6]).

For the compound `NS(=O)(=O)c1cccc(Nc2ncc(F)c(Nc3ccc(OCc4ccccn4)c(Cl)c3)n2)c1` [Compound I-171, N2-(3-Aminosulfonylphenyl)-5-fluoro-N4-[4-(2-pyridinyl)-3-chloromethyleneoxyphenyl]-2,4-pyrimidinediamine], the IC50 in experiment [1] (setting [5]) was 117 nM; in experiment [2] (setting [6]), 415 nM.

`Cc1ccc(Nc2ncc(F)c(Nc3ccc(-c4ccccn4)c(OCCl)c3)n2)cc1S(N)(=O)=O` [Compound I-174, N2-(3-Aminosulfonyl-4-methylphenyl)-5-fluoro-N4-[4-(2-pyridinyl)-3-chloromethyleneoxyphenyl]-2,4-pyrimidinediamine]: the IC50 in experiment [1] (setting [5]) came to 117 nM; in experiment [2] (setting [6]), 1230 nM.

As for `NS(=O)(=O)c1ccc(Nc2ncc(F)c(Nc3ccc(OCc4ccccn4)c(Cl)c3)n2)cc1` [Compound I-175, N2-(4-Aminosulfonylphenyl)-5-fluoro-N4-[4-(2-pyridinyl)-3-chloromethyleneoxyphenyl]-2,4-pyrimidinediamine], the figures for the half-inhibitory concentration (IC50) in experiment [1] (setting [5]) and in experiment [2] (setting [6]) were 147 nM and 3080 nM, respectively.

Take `Cc1cc(Nc2nc(Nc3ccc(S(N)(=O)=O)cc3)ncc2F)ccc1OCc1ccccn1` [Compound I-176, N2-(4-Aminosulfonylphenyl)-5-fluoro-N4-[4-(2-pyridinyl)-3-methylmethyleneoxyphenyl]-2,4-pyrimidinediamine]: the IC50 was 259 nM in experiment [1] (setting [5]) and 1690 nM in experiment [2] (setting [6]).

For the compound `NS(=O)(=O)c1cccc(Nc2ncc(F)c(Nc3cccc(OCc4cccnc4)c3)n2)c1` [Compound I-182, N2-(3-Aminosulfonylphenyl)-5-fluoro-N4-[3-(3-pyridinyl)methyleneoxyphenyl]-2,4-pyrimidinediamine], the IC50 in experiment [1] (setting [5]) came to 190 nM; in experiment [2] (setting [6]), 1130 nM.

As to `NS(=O)(=O)c1cccc(Nc2ncc(F)c(Nc3ccc(OCc4ccncc4)cc3)n2)c1` [Compound I-193, N2-(3-Aminosulfonylphenyl)-5-fluoro-N4-[4-(4-pyridinyl)methyleneoxyphenyl]-2,4-pyrimidinediamine], the IC50 in experiment [1] (setting [5]) amounted to 38.2 nM; in experiment [2] (setting [6]), 55.6 nM.

With `CNS(=O)(=O)c1cc(Nc2ncc(F)c(Nc3ccc(OCc4ccncc4)cc3)n2)ccc1C` [Compound I-195, 5-Fluoro-N2-[3-(N-methylaminosulfony)-4-methylphenyl]-5-fluoro-N4-[4-(4-pyridinyl)methyleneoxyphenyl]-2,4-pyrimidinediamine], the IC50 in experiment [1] (setting [5]) stood at 82.6 nM; in experiment [2] (setting [6]) it was 127 nM.

For `Cc1cc(COc2ccc(Nc3nc(Nc4ccc(Cl)c(S(N)(=O)=O)c4)ncc3F)cc2)no1` [Compound I-220, N2-(3-Aminosulfonyl-4-chlorophenyl)-5-fluoro-N4-[4-(5-methylisoxazol-3-yl)methyleneoxyphenyl]-2,4-pyrimidinediamine], the values for the concentration for half-maximal inhibition (IC50) in experiment [1] (setting [5]) and in experiment [2] (setting [6]) were 121 nM and 1070 nM, respectively.

Consider `Cc1cc(COc2ccc(Nc3nc(Nc4ccc(S(N)(=O)=O)cc4)ncc3F)cc2C)no1` [Compound I-240, N2-(4-Aminosulfonylphenyl)-5-fluoro-N4-[3methyl-4-(5-methylisoxazol-3-yl)methyleneoxyphenyl]-2,4-pyrimidinediamine], for which the 50% inhibitory concentration (IC50) in experiment [1] (setting [5]) amounted to 205 nM; in experiment [2] (setting [6]) it was 5260 nM.

Consider `Cc1noc(COc2cccc(Nc3nc(Nc4ccc(S(N)(=O)=O)cc4)ncc3F)c2)n1` [Compound I-253, N2-(4-Aminosulfonylphenyl)-5-fluoro-N4-[3-(3-methyl-1,2,4-oxadiazol-5-yl)methyleneoxyphenyl]-2,4-pyrimidinediamine], for which the half-maximal inhibitory concentration (IC50) in experiment [1] (setting [5]) was found to be 127 nM; in experiment [2] (setting [6]) it was 2560 nM.

`Cc1cc(COc2ccc(Nc3nc(Nc4ccc(C)c(S(N)(=O)=O)c4)ncc3F)cn2)no1` [Compound V-1, N2-(3-Aminosulfonyl-4-methylphenyl)-5-fluoro-N4-[2-(5-methylisoxazol-3-yl)methyleneoxypyridin-5-yl]-2,4-pyrimidinediamine]: the IC50 in experiment [1] (setting [7]) was determined as 2000 nM; in experiment [2] (setting [8]), 9770 nM.

For the compound `CC1(C)Oc2cc(Nc3nc(Nc4ccc(Cl)c(S(N)(=O)=O)c4)ncc3F)cnc2N(CC#N)C1=O` [Compound V-15, N2-(3-Aminosulfonyl-4-chlorophenyl)-N4-[2,2-dimethyl-3-oxo-4-cyanomethyl-5-pyrid[1,4]oxazin-7-yl]-5-fluoro-2,4-pyrimidinediamine], the IC50 was determined as 173 nM in experiment [1] (setting [7]) and 9310 nM in experiment [2] (setting [8]).

Turning to `Cc1ccc(Nc2ncc(F)c(Nc3ccc(OC4CCN(C)CC4)c(Cl)c3)n2)cc1S(N)(=O)=O` [II-8, N2-(3-Aminosulfonyl-4-methylphenyl)-5-fluoro-N4-{3-chloro-4-[(1-methylpiperidin-4-yl)oxy]phenyl}-2,4-pyrimidinediamine], the 50% inhibitory concentration (IC50) is 38.8 nM in experiment [1] (setting [3]) and 564 nM in experiment [2] (setting [4]).

On to `NS(=O)(=O)c1ccc(Nc2ncc(F)c(Nc3ccc(Oc4cccnc4)cc3)n2)cc1` [II-14, N2-(4-Aminosulfonylphenyl)-5-fluoro-N4-[4-(3-pyridyloxy)phenyl]-2,4-pyrimidinediamine], for which the figures for the half-inhibitory concentration (IC50) in experiment [1] (setting [3]) and in experiment [2] (setting [4]) were 46.9 nM and 579 nM, respectively.

As to `NS(=O)(=O)c1cc(Nc2ncc(F)c(Nc3ccc(Oc4cccnc4)cc3)n2)cc(S(N)(=O)=O)c1` [II-15, N2-[3,5-bis(Aminosulfonyl)phenyl)-5-fluoro-N4-[4-(3-pyridyloxy)phenyl]-2,4-pyrimidinediamine], the figures for the IC50 in experiment [1] (setting [3]) and in experiment [2] (setting [4]) were 982 nM and 1100 nM, respectively.

One may read the IC50 as the midpoint of a concentration-inhibition curve.
